Active and inactive are the calls of the source. No cut-off for these calls is given here.
Key:
[1] = target: Sodium-dependent serotonin transporter (Homo sapiens, UniProt P31645)
[2] = target: T1, Glutamate NMDA receptor; GRIN1/GRIN2A (Homo sapiens, UniProt Q05586+Q12879); assay: Inhibition of human GluN1/GluN2A NMDA receptor expressed in HEK293 cells assessed as reduction in glutamate induced current at -70 mV holding potential by whole-cell patch clamp technique; format: cell-based
[3] = target: T2, Sodium-dependent dopamine transporter (Homo sapiens, UniProt Q01959); assay: Inhibition of DAT (unknown origin) at 10 uM relative to control
Mu-type opioid receptor [4] = target: T3, Mu-type opioid receptor (Homo sapiens, UniProt P35372); assay: Agonist activity at human mu-opioid receptor stably expressed in CHO cells assessed as inhibition of forskolin-induced cAMP accumulation at 30 uM preincubated with compound for 10 mins followed by forskolin induction and measured after 30 mins by LANCE Ultra cAMP assay relative to control; format: functional, cell-based; conditions: time 40.0 min
[5] = target: T4, Sodium-dependent noradrenaline transporter (Homo sapiens, UniProt P23975); assay: Inhibition of human NET
[6] = target: T4, Sodium-dependent noradrenaline transporter; assay: Inhibition of NET (unknown origin) at 10 uM relative to control
[7] = target: T1, Glutamate NMDA receptor; GRIN1/GRIN2A; assay: Antagonist activity at human GluN1/GluN2A NMDA receptor expressed in HEK293 cells assessed as reduction in glutamate induced current at -70 mV holding potential by whole-cell patch clamp technique; format: cell-based
[8] = target: T2, Sodium-dependent dopamine transporter; assay: Inhibition of DAT (unknown origin)
[9] = Selectivity index, ratio of IC50 for inhibition of human GluN1/GluN2A NMDA receptor expressed in HEK293 cells to IC50 for inhibition of SERT (unknown origin); format: cell-based
[10] = Half life in ICR mouse at 10 mg/kg, po measured upto 24 hrs by LC-MS/MS analysis; format: ADME, organism-based; conditions: in vivo
[11] = MRT (0 to infinity) in ICR mouse at 10 mg/kg, ip measured upto 24 hrs by LC-MS/MS analysis; format: ADME, organism-based; conditions: in vivo
[12] = AUC (0 to infinity) in ICR mouse at 10 mg/kg, ip measured upto 24 hrs by LC-MS/MS analysis; format: ADME, organism-based; conditions: in vivo
[13] = Metabolic stability in mouse liver microsome assessed as hepatic clearance in presence of NADPH measured upto 60 mins by LC-MS/MS analysis; format: ADME; conditions: liver microsomes
[14] = Cmax in ICR mouse at 10 mg/kg, po measured upto 24 hrs by LC-MS/MS analysis; format: ADME, organism-based; conditions: in vivo
[15] = MRT (0 to t) in ICR mouse at 10 mg/kg, po measured upto 24 hrs by LC-MS/MS analysis; format: ADME, organism-based; conditions: in vivo
[16] = AUC (0 to t) in ICR mouse at 10 mg/kg, ip measured upto 24 hrs by LC-MS/MS analysis; format: ADME, organism-based; conditions: in vivo
[17] = Metabolic stability in mouse liver microsome assessed as half life in presence of NADPH measured upto 60 mins by LC-MS/MS analysis; format: ADME; conditions: liver microsomes
[18] = Tmax in ICR mouse at 10 mg/kg, ip measured upto 24 hrs by LC-MS/MS analysis; format: ADME, organism-based; conditions: in vivo
[19] = Cmax in ICR mouse at 10 mg/kg, ip measured upto 24 hrs by LC-MS/MS analysis; format: ADME, organism-based; conditions: in vivo
[20] = Metabolic stability in mouse liver microsome assessed as intrinsic clearance in presence of NADPH measured upto 60 mins by LC-MS/MS analysis; format: ADME; conditions: liver microsomes, read-out: CLH
[21] = AUC (0 to t) in ICR mouse at 10 mg/kg, po measured upto 24 hrs by LC-MS/MS analysis; format: ADME, organism-based; conditions: in vivo
Mus musculus = assay: Antidepressant activity in ip dosed C57BL/6J mouse assessed as reduction in of immobility time by forced swim test; format: functional, organism-based; conditions: dose 10-20 mg/kg
[22] = Metabolic stability in mouse liver microsome assessed as hepatic extraction ratio in presence of NADPH measured upto 60 mins by LC-MS/MS analysis; format: ADME; conditions: liver microsomes, read-out: ERH
[23] = Half life in ICR mouse at 10 mg/kg, ip measured upto 24 hrs by LC-MS/MS analysis; format: ADME, organism-based; conditions: in vivo
[24] = Tmax in ICR mouse at 10 mg/kg, po measured upto 24 hrs by LC-MS/MS analysis; format: ADME, organism-based; conditions: in vivo
[25] = AUC (0 to infinity) in ICR mouse at 10 mg/kg, po measured upto 24 hrs by LC-MS/MS analysis; format: ADME, organism-based; conditions: in vivo
[26] = Hepatotoxicity against human HepG2 cells assessed as inhibition of cell proliferation incubated for 48 hrs by celltiter-luminescence assay; format: toxicity, cell-based
[27] = Nephrotoxicity against human HEK293 cells assessed as inhibition of cell proliferation incubated for 48 hrs by celltiter-luminescence assay; format: toxicity, cell-based
Mu-type opioid receptor [28] = target: T3, Mu-type opioid receptor; assay: Agonist activity at human mu-opioid receptor stably expressed in CHO cells assessed as inhibition of forskolin-induced cAMP accumulation preincubated with compound for 10 mins followed by forskolin induction and measured after 30 mins by LANCE Ultra cAMP assay; format: functional, cell-based

T4 sequence (P23975 whole entry): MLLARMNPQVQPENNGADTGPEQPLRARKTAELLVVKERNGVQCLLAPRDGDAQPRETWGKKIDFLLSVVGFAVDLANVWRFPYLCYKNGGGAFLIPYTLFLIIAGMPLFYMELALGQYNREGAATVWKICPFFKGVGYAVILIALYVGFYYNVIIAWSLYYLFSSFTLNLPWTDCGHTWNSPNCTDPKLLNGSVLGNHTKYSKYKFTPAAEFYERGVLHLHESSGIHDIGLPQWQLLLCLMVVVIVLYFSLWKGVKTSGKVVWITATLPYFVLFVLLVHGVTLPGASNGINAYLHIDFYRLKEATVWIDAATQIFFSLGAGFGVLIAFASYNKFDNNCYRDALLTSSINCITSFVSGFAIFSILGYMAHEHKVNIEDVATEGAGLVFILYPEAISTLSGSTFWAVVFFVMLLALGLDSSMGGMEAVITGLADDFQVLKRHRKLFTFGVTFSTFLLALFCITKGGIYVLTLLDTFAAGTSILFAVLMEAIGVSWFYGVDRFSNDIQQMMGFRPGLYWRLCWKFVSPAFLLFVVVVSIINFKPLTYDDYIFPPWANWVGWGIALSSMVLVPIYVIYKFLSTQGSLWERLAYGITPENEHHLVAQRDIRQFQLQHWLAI
T1 sequence (Q12879 whole entry, other chains not shown): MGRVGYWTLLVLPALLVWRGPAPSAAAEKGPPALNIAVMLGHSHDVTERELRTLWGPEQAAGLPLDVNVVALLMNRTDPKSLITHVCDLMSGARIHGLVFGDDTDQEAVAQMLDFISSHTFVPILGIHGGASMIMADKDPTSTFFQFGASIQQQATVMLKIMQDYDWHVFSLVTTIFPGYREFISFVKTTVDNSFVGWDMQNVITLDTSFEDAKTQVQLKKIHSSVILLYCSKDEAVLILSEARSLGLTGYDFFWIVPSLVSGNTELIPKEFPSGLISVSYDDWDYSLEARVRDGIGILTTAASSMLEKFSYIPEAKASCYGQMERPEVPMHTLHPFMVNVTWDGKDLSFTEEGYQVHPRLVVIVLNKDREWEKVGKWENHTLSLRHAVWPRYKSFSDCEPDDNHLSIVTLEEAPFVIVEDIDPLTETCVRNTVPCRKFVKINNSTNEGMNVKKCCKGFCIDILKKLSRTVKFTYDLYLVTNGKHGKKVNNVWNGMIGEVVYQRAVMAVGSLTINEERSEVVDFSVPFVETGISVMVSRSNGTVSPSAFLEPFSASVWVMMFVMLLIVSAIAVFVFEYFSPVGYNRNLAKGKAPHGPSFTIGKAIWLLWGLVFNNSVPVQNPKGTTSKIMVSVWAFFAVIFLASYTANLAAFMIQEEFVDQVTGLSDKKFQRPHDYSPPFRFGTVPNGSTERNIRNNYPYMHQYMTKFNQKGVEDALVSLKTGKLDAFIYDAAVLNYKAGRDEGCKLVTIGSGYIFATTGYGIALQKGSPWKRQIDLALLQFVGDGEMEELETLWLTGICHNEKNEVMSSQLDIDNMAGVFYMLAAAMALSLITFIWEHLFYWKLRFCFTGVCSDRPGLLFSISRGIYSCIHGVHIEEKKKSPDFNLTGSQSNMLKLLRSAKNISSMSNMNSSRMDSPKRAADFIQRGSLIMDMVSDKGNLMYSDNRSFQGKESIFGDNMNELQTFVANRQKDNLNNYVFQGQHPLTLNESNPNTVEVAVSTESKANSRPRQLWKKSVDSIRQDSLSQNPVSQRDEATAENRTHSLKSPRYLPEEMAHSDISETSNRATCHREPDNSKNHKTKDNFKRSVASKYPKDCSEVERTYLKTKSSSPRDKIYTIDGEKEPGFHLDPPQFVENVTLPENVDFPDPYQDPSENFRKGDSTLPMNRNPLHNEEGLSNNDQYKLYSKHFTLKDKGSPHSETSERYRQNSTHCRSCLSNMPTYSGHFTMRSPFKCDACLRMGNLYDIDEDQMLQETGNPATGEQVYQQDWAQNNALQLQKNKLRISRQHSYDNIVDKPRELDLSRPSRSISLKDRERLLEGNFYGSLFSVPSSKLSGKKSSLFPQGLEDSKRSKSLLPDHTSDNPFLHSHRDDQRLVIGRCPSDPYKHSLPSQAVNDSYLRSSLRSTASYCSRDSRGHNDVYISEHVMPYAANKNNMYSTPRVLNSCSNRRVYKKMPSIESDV
T3 sequence (P35372 whole entry): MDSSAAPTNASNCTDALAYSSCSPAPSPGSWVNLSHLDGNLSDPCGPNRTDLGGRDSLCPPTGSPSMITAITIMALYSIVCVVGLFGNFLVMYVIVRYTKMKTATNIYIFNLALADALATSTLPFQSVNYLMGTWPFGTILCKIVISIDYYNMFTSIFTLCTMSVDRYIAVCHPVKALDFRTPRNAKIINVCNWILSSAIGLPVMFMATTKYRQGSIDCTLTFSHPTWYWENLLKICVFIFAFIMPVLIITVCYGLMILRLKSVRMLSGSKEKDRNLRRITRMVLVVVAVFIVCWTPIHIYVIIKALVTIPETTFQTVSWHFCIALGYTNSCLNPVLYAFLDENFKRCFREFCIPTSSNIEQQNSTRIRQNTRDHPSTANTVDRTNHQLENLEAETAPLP
Chain of Sodium-dependent serotonin transporter (P31645 whole entry): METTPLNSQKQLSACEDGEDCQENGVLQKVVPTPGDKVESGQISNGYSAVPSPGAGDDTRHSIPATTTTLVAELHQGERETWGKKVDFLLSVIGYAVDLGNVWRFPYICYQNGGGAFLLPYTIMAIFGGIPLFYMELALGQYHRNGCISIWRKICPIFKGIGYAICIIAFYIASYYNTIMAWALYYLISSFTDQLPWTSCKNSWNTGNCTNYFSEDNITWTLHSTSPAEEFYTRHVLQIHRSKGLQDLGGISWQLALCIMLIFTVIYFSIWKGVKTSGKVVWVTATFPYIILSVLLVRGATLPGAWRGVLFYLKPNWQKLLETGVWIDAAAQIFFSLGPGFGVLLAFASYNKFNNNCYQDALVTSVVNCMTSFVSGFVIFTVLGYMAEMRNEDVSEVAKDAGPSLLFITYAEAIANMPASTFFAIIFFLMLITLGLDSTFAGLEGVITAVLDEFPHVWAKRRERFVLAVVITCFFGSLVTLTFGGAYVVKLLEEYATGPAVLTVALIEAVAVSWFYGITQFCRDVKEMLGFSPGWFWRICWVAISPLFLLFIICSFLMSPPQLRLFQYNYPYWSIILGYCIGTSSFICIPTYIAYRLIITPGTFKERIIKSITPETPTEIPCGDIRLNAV
T2 sequence (Q01959 whole entry): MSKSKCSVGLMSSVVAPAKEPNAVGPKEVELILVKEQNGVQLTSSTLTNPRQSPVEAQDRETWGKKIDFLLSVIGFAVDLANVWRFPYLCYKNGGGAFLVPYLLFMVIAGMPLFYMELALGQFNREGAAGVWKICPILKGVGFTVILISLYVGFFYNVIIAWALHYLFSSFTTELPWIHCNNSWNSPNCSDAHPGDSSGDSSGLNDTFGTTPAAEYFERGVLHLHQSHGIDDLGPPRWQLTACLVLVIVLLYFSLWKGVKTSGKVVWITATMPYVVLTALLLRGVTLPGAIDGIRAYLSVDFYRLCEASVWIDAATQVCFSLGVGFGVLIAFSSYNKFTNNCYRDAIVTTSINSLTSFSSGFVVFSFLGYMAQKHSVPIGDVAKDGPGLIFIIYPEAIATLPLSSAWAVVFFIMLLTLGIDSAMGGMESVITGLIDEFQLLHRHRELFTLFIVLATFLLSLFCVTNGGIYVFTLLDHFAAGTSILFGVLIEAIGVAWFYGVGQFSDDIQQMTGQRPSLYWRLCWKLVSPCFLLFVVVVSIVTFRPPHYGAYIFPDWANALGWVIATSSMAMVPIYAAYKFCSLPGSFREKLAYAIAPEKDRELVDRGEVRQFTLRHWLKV

Compound	IC50 [1] [µM]	IC50 [2] [µM]	inhibition [3]	inhibition (Mu-type opioid receptor [4]) [%]	inhibition [6]	further results
CCc1ccc2c(c1)[C@]13CCCC[C@@H]1[C@H](C2)NCC3	1890	0.5	inactive	33		IC50 [5]: 4.71 µM
CN1CC[C@@]23CCCC[C@@H]2[C@@H]1Cc1ccc(O)cc13 [DEXTRORPHAN]	633	0.28	inactive			IC50 [5]: 2.84 µM
CNC(=O)c1ccc2c(c1)[C@]13CCCC[C@@H]1[C@H](C2)N(C)CC3	335	19.9	15%	25	12%	
CCN1CC[C@@]23CCCC[C@@H]2[C@@H]1Cc1ccc(O)cc13	5400	0.28	12%	9		IC50 [5]: 10.6 µM
Cc1ccc2c(c1)[C@]13CCCC[C@@H]1[C@H](C2)NCC3	2090	0.28	inactive	16		IC50 [5]: 5.72 µM
CN1CC[C@@]23CCCC[C@@H]2[C@@H]1Cc1ccc(C(=O)NC2CC2)cc13	5660	9.23	6%		inactive	inhibition (Mu-type opioid receptor [4]; filed as agonist): 60%
CCc1ccc2c(c1)[C@]13CCCC[C@@H]1[C@H](C2)N(C)CC3	238	5.18	13%	23		IC50 [5]: 4.9 µM
CC(O)c1ccc2c(c1)[C@]13CCCC[C@@H]1[C@H](C2)N(C)CC3 (some centres not stated)	1090		inactive	8	39%	
CCN1CC[C@@]23CCCC[C@@H]2[C@@H]1Cc1ccccc13	11300	4.92	inactive		23%	inhibition (Mu-type opioid receptor [4]; filed as agonist): 40%
CCOc1ccc2c(c1)[C@]13CCCC[C@@H]1[C@H](C2)NCC3	463	0.34	16%	24	12%	
c1ccc2c(c1)C[C@@H]1NCC[C@]23CCCC[C@H]13	8300		20%		14%	IC50 [7]: 0.43 µM; inhibition (Mu-type opioid receptor [4]; filed as agonist): 95%
c1ccc2cc([C@]34CNC[C@H]3C4)ccc2c1 [CENTANAFADINE]	90					IC50 [8]: 0.06 µM; Activity (Mu-type opioid receptor [4]): inactive; IC50 [5]: 0.01 µM
COC(=O)c1ccc2c(c1)[C@]13CCCC[C@@H]1[C@H](C2)N(C)CC3	17	4.77	inactive		12%	inhibition (Mu-type opioid receptor [4]; filed as agonist): 88%
Cc1ccc2c(c1)[C@]13CCCC[C@@H]1[C@H](C2)N(C)CC3 [DIMEMORFAN]	148	2.96	inactive	21		Ratio IC50 [9]: 20; IC50 [5]: 1.22 µM
CN1CC[C@@]23CCCC[C@@H]2[C@@H]1Cc1ccc(NC(=O)c2ccccc2)cc13	7600	2.2	15%	14	inactive	
CC(=O)c1ccc2c(c1)[C@]13CCCC[C@@H]1[C@H](C2)N(C)CC3	130	> 40	inactive		inactive	inhibition (Mu-type opioid receptor [4]; filed as agonist): 87%
CCc1ccc2c(c1)[C@]13CCCC[C@@H]1[C@H](C2)N(CC)CC3	2300	9.87	5%	10	24%	
CN1CC[C@@]23CCCC[C@@H]2[C@@H]1Cc1ccc(C(C)(C)O)cc13	9000	> 40	inactive	11	inactive	
COc1ccc2c(c1)[C@]13CCCC[C@@H]1[C@H](C2)NCC3	1170	0.3	4%	23	44%	
CN1CC[C@@]23CCCC[C@@H]2[C@@H]1Cc1ccccc13	333	2.96	15%	39		IC50 [5]: 17.3 µM
CNc1ccc2c(c1)[C@]13CCCC[C@@H]1[C@H](C2)N(C)CC3	577	6.23	10%	14	25%	
CN1CC[C@@]23CCCC[C@@H]2[C@@H]1Cc1ccc(NC=O)cc13	270	3.07	6%	33	inactive	
CCOc1ccc2c(c1)[C@]13CCCC[C@@H]1[C@H](C2)N(C)CC3	15	1.81	10%	26	33%	
CC(=O)Nc1ccc2c(c1)[C@]13CCCC[C@@H]1[C@H](C2)N(C)CC3	435	2.17	19%	36	inactive	half-life [10]: 51.6 min; MRT inf [11]: 40.8 min; AUC(0-inf) [12]: 1080 ng·h/mL; CLhep predicted [13]: 25.3 mL/min/kg; Cmax [14]: 1040 ng/mL; MRT last at 24 h [15]: 62.4 min; AUC(0-t) at 24 h [16]: 1080 ng·h/mL; half-life [17]: 267 min; Tmax [18]: 4.8 min; Cmax [19]: 1680 ng/mL; CLint scaled [20]: 35.1 mL/min/kg; AUC(0-t) at 24 h [21]: 1220 ng·h/mL; Activity (Mus musculus): Dose-dependent-effect; hepatic extraction ratio at 1 h [22]: 0.281; half-life [23]: 44.4 min; Tmax [24]: 11.4 min; AUC(0-inf) [25]: 1220 ng·h/mL
Cc1ccc(Sc2ccccc2N2CCNCC2)c(C)c1 [VORTIOXETINE]						IC50 at 48 h [26]: 8.1 µM; IC50 at 48 h [27]: 12.2 µM
CCOc1ccc2c(c1)[C@]13CCCC[C@@H]1[C@H](C2)N(CC)CC3	2000	1.3	6%	4	26%	
CN1CC[C@@]23CCCC[C@@H]2[C@@H]1Cc1ccc(C(N)=O)cc13	123	3.01	inactive		12%	EC50 (Mu-type opioid receptor [28]): 25 µM

From ChEMBL document CHEMBL6114989, “D-morphinan analogs with favorable pharmacokinetic profiles as dual-acting antidepressants” (Eur J Med Chem, 2025)
